Data as given in patent US8501713B2, “Drug combinations for the treatment of duchenne muscular dystrophy” (Summit Corporation PLC, priority 2007, dated 2013).

Tested on: Utrophin A promoter linked to a luciferase reporter gene
Assay: Luciferase reporter assay (murine H2K cells)
Format: cell-based
Conditions: for Activity: luciferase reporter assay in murine H2K cells, classified relative to control; for activity at 10 µM: Mus musculus, H2K mdx, luciferase level relative to control, H2K/mdx/Utro A reporter cells, compound 10 μM final concentration, read-out: Activity
Outline: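 Compound at 10 μM final was applied for 48 hrs to plated H2K mdx myoblasts (33° C, 10% CO2, interferon-containing medium) bearing a luciferase gene under the utrophin A promoter. Luminescence from lysed cells served as read-out.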

| Compound | Activity | activity at 10 µM |
| --- | --- | --- |
| Cc1ccc2[nH]c(-c3ccc(NC(=O)c4ccco4)cc3)nc2c1 [Example 580] | +++ (Between 301% and 400% relative to control) |  |
| O=C(Nc1ccc2oc(-c3ccccc3)nc2c1)c1cccnc1 [Example 6, N-(2-phenylbenzo[d]oxazol-5-yl)nicotinamide] |  | < 200% |
| Nc1ccc2nc(-c3ccc(-c4nc5ccc(N)cc5[nH]4)cc3)[nH]c2c1 [Example 476] | + (Up to 200% relative to control) |  |
| Nc1ccc2oc(-c3ccc(O)cc3)nc2c1 [Example 496] | ++ (Between 201% and 300% relative to control) |  |
| CCS(=O)(=O)c1ccc2oc(-c3ccc4occc4c3)nc2c1 [Example 445, 2-(benzofuran-5-yl)-5-(ethylsulfonyl)benzo[d]oxazole] |  | > 401% |
| Cc1ccc(-c2nc3c([N+](=O)[O-])cccc3o2)cc1 [Example 189, 4-nitro-2-p-tolylbenzo[d]oxazole] |  | < 200% |
| COc1ccc(-c2nc3cc(N)ccc3o2)cc1OC [Example 515] | ++ (Between 201% and 300% relative to control) |  |
| Clc1ccc(-c2nc3cc(-c4ccccc4)ccc3o2)cc1 [Example 162, 2-(4-chlorophenyl)-5-phenylbenzo[d]oxazole] |  | < 200% |
| Nc1cc2oc(-c3ccc4c(c3)OCO4)nc2cc1Cl [Example 397, 2-(benzo[d][1,3]dioxol-5-yl)-5-chlorobenzo[d]oxazol-6-amine] |  | 301 to 400% |
| CCCCNc1ccc2oc(-c3ccc(Cl)cc3)nc2c1 [Example 182, N-butyl-2-(4-chlorophenyl)benzo[d]oxazol-5-amine] |  | 301 to 400% |
| O=[N+]([O-])c1cc2oc(-c3ccc4c(c3)OCO4)nc2cc1Cl [Example 371, 2-(benzo[d][1,3]dioxol-5-yl)-5-chloro-6-nitrobenzo[d]oxazole] |  | 301 to 400% |
| CNC(=O)c1ccc2oc(-c3ccc(Cl)cc3)nc2c1 [Example 279, 2-(4-chlorophenyl)-N-methylbenzo[d]oxazole-5-carboxamide] |  | 301 to 400% |
| CCCCc1nc2cc(S(=O)(=O)CC)ccc2o1 [Example 570] | + (Up to 200% relative to control) |  |
| CCc1ccc2oc(-c3cccc(NC(C)=O)c3)nc2c1 [Example 642] | +++ (Between 301% and 400% relative to control) |  |
| CC(C)C(=O)Nc1cc2oc(-c3ccc4c(c3)OCO4)nc2cc1Cl [Example 398, N-(2-(benzo[d][1,3]dioxol-5-yl)-5-chlorobenzo[d]oxazol-6-yl)isobutyramide] |  | < 200% |
| CCc1ccc(-c2nc3cc(N)ccc3o2)cc1 [Example 481] | ++ (Between 201% and 300% relative to control) |  |
| COc1ccc(OCc2nc3ccccc3[nH]2)cc1 [Example 473] | ++ (Between 201% and 300% relative to control) |  |
| CCCCC(=O)Nc1ccc2oc(-c3ccc(OC)cc3)nc2c1 [Example 138, N-(2-(4-methoxyphenyl)benzo[d]oxazol-5-yl)pentanamide] |  | < 200% |
| CC(C)NC(=O)c1ccc2oc(-c3ccc(Cl)cc3)nc2c1 [Example 263, 2-(4-chlorophenyl)-N-isopropylbenzo[d]oxazole-5-carboxamide] |  | 301 to 400% |
| c1cc(NCc2ccncc2)cc(-c2nc3ccccc3s2)c1 [Example 647] | +++ (Between 301% and 400% relative to control) |  |

| Compound | Activity | activity at 10 µM |
| --- | --- | --- |
| Cc1cc(C)c2oc(-c3ccc(Cl)c(N)c3)nc2c1 [Example 627] | ++++ (Above 401% relative to control) |  |
| Fc1ccc(-c2ccc3oc(-c4ccc(Cl)cc4)nc3c2)cn1 [Example 315, 2-(4-chlorophenyl)-5-(6-fluoropyridin-3-yl)benzo[d]oxazole] |  | < 200% |
| CCC(=O)Nc1ccc2nn(-c3ccc(Cl)cc3)nc2c1 [Example 148, N-(2-(4-chlorophenyl)-2H-benzo[d][1,2,3]triazol-5-yl)propionamide] |  | > 401% |
| CC(C)C(=O)Nc1ccc2sc(-c3cccc(Cl)c3Cl)nc2c1 [Example 303, N-(2-(2,3-dichlorophenyl)benzo[d]thiazol-5-yl)isobutyramide] |  | 301 to 400% |
| CCOCC(=O)Nc1ccc(-c2nc3ccc(C)cc3s2)cc1 [Example 657] | +++ (Between 301% and 400% relative to control) |  |
| O=C(CSc1nc[nH]n1)Nc1ccc(-c2nc3ccccc3s2)cc1 [Example 685] | ++ (Between 201% and 300% relative to control) |  |
| CC(=O)Nc1ccc(-c2ccc3oc(-c4ccc(Cl)cc4)nc3c2)cc1 [Example 252, N-(4-(2-(4-chlorophenyl)benzo[d]oxazol-5-yl)phenyl)acetamide] |  | 301 to 400% |
| Cn1c(-c2ccc(N)cc2)nc2cc(N)ccc21 [Example 490] | + (Up to 200% relative to control) |  |
| COc1ccc2oc(-c3cccc(N)c3)nc2c1 [Example 630] | ++++ (Above 401% relative to control) |  |
| CCCc1nc2cc(N)ccc2o1 [Example 154, 2-propylbenzo[d]oxazol-5-amine] |  | < 200% |
| Clc1ccc(-c2nc3cc(Br)ccc3o2)cc1 [Example 288, 5-bromo-2-(4-chlorophenyl)benzo[d]oxazole] |  | > 401% |
| O=[N+]([O-])c1ccc2oc(-c3ccccn3)nc2c1 [Example 171, 5-nitro-2-(pyridin-2-yl)benzo[d]oxazole] |  | < 200% |
| CN(C)c1ccc(-c2nc3cc(N)ccc3o2)cc1 [Example 491] | ++ (Between 201% and 300% relative to control) |  |
| CCCC(=O)Nc1ccc2[nH]c(-c3ccc(C)cc3)nc2c1 [Example 166, N-(2-p-tolyl-1H-benzo[d]imidazol-5-yl)butyramide] |  | < 200% |
| O=C(Nc1ccc2oc(-c3ccccc3)nc2c1)c1cccs1 [Example 37, N-(2-phenylbenzo[d]oxazol-5-yl)thiophene-2-carboxamide] |  | 201 to 300% |
| COc1ccc(-c2nc3cc([N+](=O)[O-])ccc3[nH]2)cc1OC [Example 520] | + (Up to 200% relative to control) |  |
| O=[N+]([O-])c1ccc2nc(-c3ccccc3)[nH]c2c1 [Example 604] | +++ (Between 301% and 400% relative to control) |  |
| CCCc1ccc2oc(-c3cccc(C(=O)O)c3)nc2c1 [Example 80, 3-(5-propylbenzo[d]oxazol-2-yl)benzoic acid] |  | < 200% |
| CN(C)c1ccc(-c2nc3ccccc3o2)cc1 [Example 486] | + (Up to 200% relative to control) |  |
| CC(C)C(=O)Nc1ccc2oc(-c3ccc(C(F)(F)F)cc3)nc2c1 [Example 127, N-(2-(4-(trifluoromethyl)phenyl)benzo[d]oxazol-5-yl)isobutyramide] |  | < 200% |

| Compound | Activity | activity at 10 µM |
| --- | --- | --- |
| O=C(Nc1ccc(-c2nc3ncccc3o2)cc1)c1ccccc1Cl [Example 641] | +++ (Between 301% and 400% relative to control) |  |
| O=C(c1ccccc1)c1ccc2nc(-c3ccccc3)[nH]c2c1 [Example 5, phenyl(2-phenyl-1H-benzo[d]imidazol-6-yl)methanone] |  | < 200% |
| CC(C)C(=O)Nc1ccc2oc(-c3ccccc3Cl)nc2c1 [Example 230, N-(2-(2-chlorophenyl)benzo[d]oxazol-5-yl)isobutyramide] |  | > 401% |
| CCS(=O)(=O)c1ccc2oc(-c3ccc(C)s3)nc2c1 [Example 418, 5-(ethylsulfonyl)-2-(5-methylthiophen-2-yl)benzo[d]oxazole] |  | > 401% |
| O=[N+]([O-])c1ccc2oc(-c3ccccc3O)nc2c1 [Example 21, 2-(5-nitrobenzo[d]oxazol-2-yl)phenol] |  | < 200% |
| Cc1cccc(-c2nc3cc([N+](=O)[O-])ccc3o2)c1 [Example 533] | ++ (Between 201% and 300% relative to control) |  |
| CCN(CC)c1ccc(-c2nc3cc(NC(=O)c4ccc(OC)cc4)ccc3o2)cc1 [Example 65, N-(2-(4-(diethylamino)phenyl)benzo[d]oxazol-5-yl)-4-methoxybenzamide] |  | < 200% |
| Nc1ccc2oc(NCc3ccc(Cl)cc3)nc2c1 [Example 381, N2-(4-chlorobenzyl)benzo[d]oxazole-2,5-diamine] |  | < 200% |
| CCCc1nc2cc(S(=O)(=O)CC)ccc2o1 [Example 571] | + (Up to 200% relative to control) |  |
| Cc1cc2oc(C(=O)NCc3ccncc3)c(C)c2cc1C [Example 656] | +++ (Between 301% and 400% relative to control) |  |
| CC(=O)Nc1ccc(-c2nc3cc(Cl)c(NC(C)=O)cc3[nH]2)cc1 [Example 556] | + (Up to 200% relative to control) |  |
| Cn1c(CNc2ccc(Cl)cc2)nc2ccccc21 [Example 666] | ++ (Between 201% and 300% relative to control) |  |
| CC(C)C(=O)Nc1ccc(-c2nc3ccccc3o2)cc1 [Example 454, N-(4-(Benzo[d]oxazol-2-yl)phenyl)isobutyramide] |  | > 401% |
| CC(=O)Oc1ccc(C(=O)Nc2ccc(-c3nc4ccccc4[nH]3)cc2)cc1 [Example 655] | +++ (Between 301% and 400% relative to control) |  |
| Fc1ccccc1-c1nc2ccccc2[nH]1 [Example 507] | ++ (Between 201% and 300% relative to control) |  |
| CC(C)C(=O)Nc1ccc2oc(-c3cc(Cl)cc(Cl)c3)nc2c1 [Example 271, N-(2-(3,5-dichlorophenyl)benzo[d]oxazol-5-yl)isobutyramide] |  | 201 to 300% |
| CCSc1cccc(-c2ccc3oc(-c4ccc(Cl)cc4)nc3c2)c1 [Example 292, 2-(4-chlorophenyl)-5-(3-(ethylthio)phenyl)benzo[d]oxazole] |  | 201 to 300% |
| O=C(Nc1ccc2oc(-c3ccc(Cl)cc3)nc2c1)C1CC1 [Example 265, N-(2-(4-chlorophenyl)benzo[d]oxazol-5-yl)cyclopropanecarboxamide] |  | > 401% |
| CCN(CC)c1ccc(-c2nc3cc(NC(=O)c4ccc(F)cc4)ccc3o2)cc1 [Example 71, N-(2-(4-(diethylamino)phenyl)benzo[d]oxazol-5-yl)-4-fluorobenzamide] |  | < 200% |
